This note sets out measurements from patent publication US11103526B2, “Methods for treatment using small molecule potassium-sparing diuretics and natriuretics” (University of Pittsburgh—Of the Commonwealth System of …, priority 2016, dated 2021).

The test system of experiment [1] is obese Zucker Diabetic Sprague Dawley rats (ZDSD). Briefly: Long-term MABP in obese Zucker Diabetic Sprague Dawley rats. In kind it is in vivo. Conditions: 10 mg/kg/day in drinking water; also with 1% salt and diabetogenic diet. An excerpt: This example describes the long-term effects of 8-aminoguanine (FIG. 14A) and 8-aminoguanosine (FIG. 14B) on mean arterial blood pressure (MABP) in obese Zucker Diabetic Sprague Dawley rats (ZDSD). Obese ZDSD are a recently developed model (developed by PreClinOmics) of metabolic syndrome that have a mild elevation of MABP and have dyslipidemia, diabetes, and obesity. All animals were instrumented for long-term measurement of MABP by radiotelemetry as previously described (Jackson E K et al., Hypertension, 65:238-249, 2015). Group 1 ZDSD received only normal drinking water, whereas Group 2 received normal drinking water for 7 days and then were provided drinking water containing 8-aminoguanine or 8-aminoguanosine (10 mg/kg/day) for the remainder of the study. The experiment was divided into three phases (indicated by the boxes). During phase 1, no other treatments were provided. During phase 2, all animals received 1% salt (NaCl) in their drinking water. During phase 3, all animals were provided (in addition to 1% salt in the drinking water) a diabetogenic diet to worsen diabetes. The numbers in each box are the average MABP in Group 2 versus Group 1 during the time period indicated by the box. P-values comparing Group 2 versus Group 1 during each phase of the experiment are also provided.

In experiment [2] the test system is obese ZDSD (metabolic syndrome). Briefly: Glycated hemoglobin (HbA1C) in obese ZDSD at end of diabetogenic diet. It counts as in vivo, Zucker Diabetic Sprague Dawley rats. The following applies: chronic treatment 10 mg/kg/day. The source says: This example describes the long-term effects of 8-aminoguanine on (FIG. 18) on glycated hemoglobin (HbA1C) levels in blood from rats with the metabolic syndrome (i.e., obese ZDSD) at the end of a diabetogenic diet. Obese ZDSD are a recently developed model (developed by PreClinOmics) of metabolic syndrome that have a mild elevation of MABP and have dyslipidemia, diabetes, and obesity.

For experiment [3], the system named is spontaneously hypertensive rats (SHR). The experiment can be described thus: Long-term MABP in spontaneously hypertensive rats. The following applies: 5 mg/kg/day in drinking water; significant during weeks 2-5. It counts as in vivo. An excerpt:
This example describes the long-term effects of 8-aminoguanine (FIGS. 12A-12B) and 8-aminoguanosine (FIGS. 13A-13B) on mean arterial blood pressure (MABP) in spontaneously hypertensive rats (SHR). SHR are a well-established animal model of genetic hypertension that is not salt sensitive. All animals were instrumented for long-term measurement of MABP by radiotelemetry as previously described (Jackson E K et al., Hypertension, 65:238-249, 2015). Group 1 SHR received only normal drinking water; whereas Group 2 received normal drinking water for 7 days, and then were provided drinking water containing 8-aminoguanine or 8-aminoguanosine (5 mg/kg/day) for the remainder of the study.

For a further experiment, the system named is anesthetized rats. Briefly: Protocol 1: head-to-head intravenous bolus in anesthetized rats (Example 11). It counts as in vivo, male Sprague-Dawley rats. The following applies: 33.5 μmoles/kg intravenous bolus versus vehicle. The method, then:
Animals. Male Sprague-Dawley rats (Charles River; Wilmington, Mass.) approximately 16 weeks old were employed. The Institutional Animal Care and Use Committee approved all procedures. The investigation conforms to National Institutes of Health Guide for the Care and Use of Laboratory Animals.
Protocol 1. After inducing anesthetization with Inactin® (90 mg/kg, i.p.), each rat was positioned on an isothermal pad. A thermometer probe was inserted into the rectum, and the rat's body temperature was continuously monitored and maintained at 37° C. by adjusting the distance of a heat lamp from the animal's body. Using polyethylene (PE)-240 tubing, the trachea was cannulated to aid respiration. Next, a PE-50 cannula was inserted into the carotid artery and connected to a digital blood pressure analyzer (Micro-Med, Inc., Louisville, Ky.) for continuous measurement of mean arterial blood pressure (MABP) and heart rate (HR). A PE-50 cannula was placed in the jugular vein, and infusion of 0.9% saline (50 μl/min) began. After a stabilization period of approximately one hour, urine was collected for 30 minutes, while MABP and HR were time-averaged (Period 1: 0-30 minutes into protocol). Next, 8-aminoguanosine (33.5 μmoles/kg; 1 ml/kg) or 8-aminoguanine (33.5 μmoles/kg; 1 ml/kg) or vehicle (0.9% saline containing 0.03 N HCl; 1 ml/kg) was administered intravenously as a bolus. The dose was selected based on Examples 1-7. Rats were randomized to treatment groups, and the rats in each group received only one treatment. Ten minutes after the treatments, urine was collected for another 30 minutes (Period 2: […] into protocol). After a 15-minute rest period, urine was again collected for 30 minutes (Period 3: 85-115 minutes into protocol). During each urine collection period, the MABP and HR were continuously recorded. Further, at the midpoint of each 30-minute urine collection period, a blood sample (0.5 ml) was obtained to measure plasma creatinine (Creatinine Colorimetric Assay Kit; catalogue number, 500701; Cayman Chemical; Ann Arbor, Mich.) and aldosterone (Aldosterone ELISA Kit; catalogue number, ADI-900-173; Enzo Life Sciences, Farmingdale, N.Y.) and to determine sodium and potassium by flame photometry (Model IL-943; Instrumentations Laboratory Inc., Lexington, Mass.). Sodium and potassium were also measured in urine (flame photometry) as was glucose (Glucose Colorimetric Assay Kit; catalogue number, 10009582; Cayman Chemical). Creatinine clearance was calculated as an estimate of glomerular filtration rate (GFR).
Statistics. Statistical analysis was performed using 1- or 2-factor repeated measures analysis of variance (ANOVA) followed by a Fisher's Least Significant Difference (LSD) test if the effects in the ANOVA were significant. The criterion of significance was p<0.05. The values are presented as the mean±SEM. […]

As to `Nc1nc2c(nc(N)n2[C@@H]2O[C@H](CO)[C@@H](O)[C@H]2O)c(=O)[nH]1` [8-aminoguanosine, 8-Aminoguanosine], in experiment [1], the “MABP in metabolic syndrome (obese ZDSD)” value was “decrease MABP”. The “glycated hemoglobin (HbA1C) levels in blood” value in experiment [2] was “significantly lowered”. For the same compound, in experiment [3], the “MABP in SHR” value was “antihypertensive”. Also, in the experiment with anesthetized rats, the MABP entry is listed as “neither 8-aminoguanosine nor 8-aminoguanine acutely affected”, the “glomerular filtration rate (GFR; creatinine clearance)” value is on record as “significantly lower”, the “heart rate (HR)” value is given as “neither 8-aminoguanosine nor 8-aminoguanine acutely affected” and the plasma aldosterone concentrations entry was “neither 8-aminoguanosine nor 8-aminoguanine acutely affected”. In the experiment on anesthetized rats, the urinary glucose excretion result was “significantly greater”, the urinary potassium excretion entry is listed as “significantly lower”, the urinary sodium excretion result is given as “significantly greater” and the urine volume entry is “significantly greater”.
Consider `Nc1nc2[nH]c(N)nc2c(=O)[nH]1` [8-aminoguanine, 8-Aminoguanine], for which, in experiment [1], the “MABP in metabolic syndrome (obese ZDSD)” value is reported as “decrease MABP”. In addition, the “glycated hemoglobin (HbA1C) levels in blood” value in experiment [2] is “dramatic anti-diabetic effect”. In addition, in experiment [3], the “MABP in SHR” value is “antihypertensive”. Also, in the experiment with anesthetized rats, the MABP entry is “neither 8-aminoguanosine nor 8-aminoguanine acutely affected”, the “glomerular filtration rate (GFR; creatinine clearance)” value is recorded as “significantly lower”, the “heart rate (HR)” value is on record as “neither 8-aminoguanosine nor 8-aminoguanine acutely affected” and the plasma aldosterone concentrations result is “neither 8-aminoguanosine nor 8-aminoguanine acutely affected”. In addition, in the experiment on anesthetized rats, the urinary glucose excretion entry is listed as “significantly greater”, the urinary potassium excretion entry was “significantly lower”, the urinary sodium excretion entry is listed as “significantly greater” and the urine volume entry is “significantly greater”.
